Data: PubChem BioAssay AID1963833 (Molecular Pharmacology Branch, DTP, NCI, 2024)

Test system: 883617-216-R-J1-PDC complex spheroid viability
Test: Anticancer human tumor 883617-216-R-J1-PDC patient-derived bladder carcinoma cell line growth inhibition [POLQ]
Conditions: for IC50: curve of first compound; for viability, T/C: stronger effect = lower value
Procedure, shortened: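 Patient-derived tumour cells were co-cultured with HUVEC and mesenchymal stem cells as multicellular spheroids at 37 °C. They were treated with POLQ inhibitors (novobiocin, ART-558, RP6685) alone or combined with other agents. Top concentrations were at or near clinical Cmax (otherwise 10 microM; SN-38 at 1 microM), decreasing in half-log steps.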

[1] = second compound 0.0316 µM, first compound 0.0316 µM
[2] = second compound 0.0316 µM, first compound 0.1 µM
[3] = second compound 0.0316 µM, first compound 0.316 µM
[4] = second compound 0.0316 µM, first compound 1 µM
[5] = second compound 0.0316 µM, first compound 3.16 µM
[6] = second compound 0.0316 µM, first compound 10 µM
[7] = second compound 0.1 µM, first compound 0.0316 µM
[8] = second compound 0.1 µM, first compound 0.1 µM
[9] = second compound 0.1 µM, first compound 0.316 µM
[10] = second compound 0.1 µM, first compound 1 µM
[11] = second compound 0.1 µM, first compound 3.16 µM
[12] = second compound 0.1 µM, first compound 10 µM
[13] = second compound 0.316 µM, first compound 0.0316 µM
[14] = second compound 0.316 µM, first compound 0.1 µM
[15] = second compound 0.316 µM, first compound 0.316 µM
[16] = second compound 0.316 µM, first compound 1 µM
[17] = second compound 0.316 µM, first compound 3.16 µM
[18] = second compound 0.316 µM, first compound 10 µM
[19] = second compound 1 µM, first compound 0.0316 µM
[20] = second compound 1 µM, first compound 0.1 µM
[21] = second compound 1 µM, first compound 0.316 µM
[22] = second compound 1 µM, first compound 1 µM
[23] = second compound 1 µM, first compound 3.16 µM
[24] = second compound 1 µM, first compound 10 µM
[25] = second compound 3.16 µM, first compound 0.0316 µM
[26] = second compound 3.16 µM, first compound 0.1 µM
[27] = second compound 3.16 µM, first compound 0.316 µM
[28] = second compound 3.16 µM, first compound 1 µM
[29] = second compound 3.16 µM, first compound 3.16 µM
[30] = second compound 3.16 µM, first compound 10 µM
[31] = second compound 10 µM, first compound 0.0316 µM
[32] = second compound 10 µM, first compound 0.1 µM
[33] = second compound 10 µM, first compound 0.316 µM
[34] = second compound 10 µM, first compound 1 µM
[35] = second compound 10 µM, first compound 3.16 µM
[36] = second compound 10 µM, first compound 10 µM
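Further: spheroids exposed to compounds for seven days before readout.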
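Wherever viability, T/C is given: 100% = DMSO vehicle control viability.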

Question: Which results are given for `C#Cc1c(F)ccc2cc(O)cc(-c3ncc4c(N5CC6CCC(C5)N6)nc(OCC56CCCN5CC(F)C6)nc4c3F)c12` (stereo unspecified) + COC1C(OC(N)=O)C(O)C(Oc2ccc3c(O)c(NC(=O)c4ccc(O)c(CC=C(C)C)c4)c(=O)oc3c2C)OC1(C)C?
Answer: IC50 (second compound 0.0316 µM): > 10 µM; IC50 (second compound 0.1 µM): > 10 µM; IC50 (second compound 0.316 µM): > 10 µM; IC50 (second compound 1 µM): > 10 µM; IC50 (second compound 3.16 µM): > 10 µM; IC50 (second compound 10 µM): > 10 µM; viability, T/C [1]: 90.3%; viability, T/C [2]: 108%; viability, T/C [3]: 96.2%; viability, T/C [4]: 97.9%; viability, T/C [5]: 81.1%; viability, T/C [6]: 75%; viability, T/C [7]: 121%; viability, T/C [8]: 100%; viability, T/C [9]: 90.4%; viability, T/C [10]: 83.4%; viability, T/C [11]: 87.3%; viability, T/C [12]: 78.2%; viability, T/C [13]: 96.1%; viability, T/C [14]: 114%; viability, T/C [15]: 90%; viability, T/C [16]: 91%; viability, T/C [17]: 70.3%; viability, T/C [18]: 67%; viability, T/C [19]: 99.7%; viability, T/C [20]: 98.8%; viability, T/C [21]: 83.8%; viability, T/C [22]: 91.4%; viability, T/C [23]: 81.9%; viability, T/C [24]: 86.3%; viability, T/C [25]: 98.6%; viability, T/C [26]: 93.6%; viability, T/C [27]: 95.5%; viability, T/C [28]: 94.4%; viability, T/C [29]: 84.4%; viability, T/C [30]: 76.3%; viability, T/C [31]: 85.8%; viability, T/C [32]: 101%; viability, T/C [33]: 101%; viability, T/C [34]: 85.7%; viability, T/C [35]: 91.8%; viability, T/C [36]: 73.6%

Question: With `CC1COCCN1c1cc(C2(O)CC3CCC(C2)O3)c2cnn(-c3ccn[nH]3)c2n1` (stereo unspecified) + COC1C(OC(N)=O)C(O)C(Oc2ccc3c(O)c(NC(=O)c4ccc(O)c(CC=C(C)C)c4)c(=O)oc3c2C)OC1(C)C as the compound, how does the IC50 (second compound 0.0316 µM) read?
Answer: 0.102 µM

Question: And the IC50 (second compound 0.1 µM)?
Answer: 0.17 µM

Question: What about the IC50 (second compound 0.316 µM) of the same compound?
Answer: 0.135 µM

Question: And the IC50 (second compound 1 µM)?
Answer: 0.0906 µM

Question: And the IC50 (second compound 3.16 µM)?
Answer: 0.135 µM

Question: And the IC50 (second compound 10 µM)?
Answer: 0.107 µM

Question: What about the viability, T/C [1] of the same compound?
Answer: 72.8%

Question: And the viability, T/C [2]?
Answer: 49.2%

Question: What about the viability, T/C [3] of the same compound?
Answer: 35.2%

Question: And the viability, T/C [4]?
Answer: 34.4%

Question: What about the viability, T/C [5] of the same compound?
Answer: 24.9%

Question: What about the viability, T/C [6] of the same compound?
Answer: 21.8%

Question: What about the viability, T/C [7] of the same compound?
Answer: 66.8%

Question: What about the viability, T/C [8] of the same compound?
Answer: 56.8%

Question: And the viability, T/C [9]?
Answer: 42.3%

Question: And the viability, T/C [10]?
Answer: 27.6%

Question: And the viability, T/C [11]?
Answer: 25%

Question: What about the viability, T/C [12] of the same compound?
Answer: 21.8%

Question: What about the viability, T/C [13] of the same compound?
Answer: 68.4%

Question: And the viability, T/C [14]?
Answer: 53.1%

Question: And the viability, T/C [15]?
Answer: 40.9%

Question: And the viability, T/C [16]?
Answer: 27.7%

Question: What about the viability, T/C [17] of the same compound?
Answer: 25.6%

Question: What about the viability, T/C [18] of the same compound?
Answer: 21.7%

Question: And the viability, T/C [19]?
Answer: 73.4%

Question: And the viability, T/C [20]?
Answer: 45.2%

Question: And the viability, T/C [21]?
Answer: 37.1%

Question: What about the viability, T/C [22] of the same compound?
Answer: 30.7%

Question: And the viability, T/C [23]?
Answer: 25.9%

Question: What about the viability, T/C [24] of the same compound?
Answer: 22.3%

Question: And the viability, T/C [25]?
Answer: 68.7%

Question: What about the viability, T/C [26] of the same compound?
Answer: 52.4%

Question: What about the viability, T/C [27] of the same compound?
Answer: 40.9%

Question: What about the viability, T/C [28] of the same compound?
Answer: 32.4%

Question: What about the viability, T/C [29] of the same compound?
Answer: 27.8%

Question: What about the viability, T/C [30] of the same compound?
Answer: 21.3%

Question: And the viability, T/C [31]?
Answer: 58.5%

Question: And the viability, T/C [32]?
Answer: 52.5%

Question: And the viability, T/C [33]?
Answer: 42.9%

Question: And the viability, T/C [34]?
Answer: 31.2%

Question: And the viability, T/C [35]?
Answer: 29.1%

Question: What about the viability, T/C [36] of the same compound?
Answer: 23%

Question: `O=C(Nc1ccc(O)c(NS(=O)(=O)c2ccc(F)cc2)c1)c1ccc(-c2ccccc2)cc1` + COC1C(OC(N)=O)C(O)C(Oc2ccc3c(O)c(NC(=O)c4ccc(O)c(CC=C(C)C)c4)c(=O)oc3c2C)OC1(C)C was tested. Which IC50 (second compound 0.0316 µM) did it give?
Answer: > 10 µM

Question: What about the IC50 (second compound 0.1 µM) of the same compound?
Answer: > 10 µM

Question: What about the IC50 (second compound 0.316 µM) of the same compound?
Answer: > 10 µM

Question: And the IC50 (second compound 1 µM)?
Answer: > 10 µM

Question: And the IC50 (second compound 3.16 µM)?
Answer: > 10 µM

Question: And the IC50 (second compound 10 µM)?
Answer: > 10 µM

Question: What about the viability, T/C [1] of the same compound?
Answer: 95.1%

Question: What about the viability, T/C [2] of the same compound?
Answer: 90.8%

Question: And the viability, T/C [3]?
Answer: 83.6%

Question: And the viability, T/C [4]?
Answer: 84.6%

Question: What about the viability, T/C [5] of the same compound?
Answer: 95.9%

Question: And the viability, T/C [6]?
Answer: 64.9%

Question: What about the viability, T/C [7] of the same compound?
Answer: 81.6%

Question: And the viability, T/C [8]?
Answer: 100%

Question: What about the viability, T/C [9] of the same compound?
Answer: 81%

Question: And the viability, T/C [10]?
Answer: 89.6%

Question: What about the viability, T/C [11] of the same compound?
Answer: 81.3%

Question: And the viability, T/C [12]?
Answer: 62.4%

Question: And the viability, T/C [13]?
Answer: 88.1%

Question: And the viability, T/C [14]?
Answer: 104%

Question: And the viability, T/C [15]?
Answer: 83.8%

Question: What about the viability, T/C [16] of the same compound?
Answer: 90.1%

Question: What about the viability, T/C [17] of the same compound?
Answer: 89.5%

Question: And the viability, T/C [18]?
Answer: 53.2%

Question: What about the viability, T/C [19] of the same compound?
Answer: 86.4%

Question: What about the viability, T/C [20] of the same compound?
Answer: 86.5%

Question: What about the viability, T/C [21] of the same compound?
Answer: 93.3%

Question: And the viability, T/C [22]?
Answer: 90.4%

Question: And the viability, T/C [23]?
Answer: 81.7%

Question: And the viability, T/C [24]?
Answer: 62.9%

Question: And the viability, T/C [25]?
Answer: 88.9%

Question: And the viability, T/C [26]?
Answer: 96.4%

Question: What about the viability, T/C [27] of the same compound?
Answer: 97.3%

Question: And the viability, T/C [28]?
Answer: 73.5%

Question: What about the viability, T/C [29] of the same compound?
Answer: 77%

Question: And the viability, T/C [30]?
Answer: 65.7%

Question: What about the viability, T/C [31] of the same compound?
Answer: 103%

Question: What about the viability, T/C [32] of the same compound?
Answer: 87.5%

Question: What about the viability, T/C [33] of the same compound?
Answer: 98.3%

Question: What about the viability, T/C [34] of the same compound?
Answer: 83.2%

Question: What about the viability, T/C [35] of the same compound?
Answer: 89.7%

Question: And the viability, T/C [36]?
Answer: 70.4%
